The values below come from ChEMBL document CHEMBL4304832, “Novel Pyrazole-Containing Compounds Active against Mycobacterium tuberculosis” (ACS Med Chem Lett, 2019).

pIC50: −log10 of the molar value. Converted amounts (≈) assume the structure as drawn. Some results are limits rather than exact numbers.

By MIC is commonly meant the least concentration at which growth counts as inhibited. Read a low MIC as greater potency. What is called solubility is the dissolved amount per volume that the medium holds. In general, chromatographic logD refers to lipophilicity estimated from chromatographic retention. A low value points to a more hydrophilic compound. In general, pIC50 refers to −log10 of the IC50, conventionally taken in molar units. Higher therefore signals a low IC50. As a reminder, the CC50 is the concentration that lowers cell viability or growth by half. Higher therefore signals lower toxicity to the cells.

Series [1] deals with Mycobacterium tuberculosis. The series is described as follows: Antitubercular activity against Mycobacterium tuberculosis H37Rv incubated for 6 days by resazurin dye based fluorescence assay. In kind it is functional. The note with it: 144 h. (Alamar Blue is a resazurin reagent that responds to reducing activity.)
Series [2] is described as follows: Solubility of the compound in FASSIF at 1 mg incubated for 4 hrs by UPLC-MS analysis. In kind it is physicochemical.
Series [3] can be described thus: Protection Index, ratio of CC50 for human HepG2 cells to MIC for Mycobacterium tuberculosis H37Rv. As to conditions: read-out: PI. In kind it is toxicity.
A short description of series [4]: Kinetic solubility of the compound in pH 7.4 phosphate buffered saline. The format is physicochemical. The note with it: read-out: Kinetic_solubility.
A short description of series [5]: Chromatographic lipophilicity, log D of compound in PBS ay pH 7.4 by UV-HPLC analysis. In kind it is physicochemical. The note with it: PBS.
Series [6] has as its target Albumin (Homo sapiens, UniProt P02768). Put plainly: Binding affinity to HSA by HPLC analysis. The format is ADME. As to conditions: isolated protein.
The test system of series [7] is Mycobacterium tuberculosis. The series is described as follows: Antitubercular activity against Mycobacterium tuberculosis H37Rv infected in C57BL/6 mouse assessed as reduction in bacterial load in lungs at 200 mg/kg administered once daily starting from 5 days post infection for 4 consecutive days and measured on day 9. The format is functional.
Series [8] addresses Voltage-gated inwardly rectifying potassium channel KCNH2 (Homo sapiens, UniProt Q12809). Put plainly: Inhibition of human ERG.
Series [9] in a line: Cytotoxicity against human HepG2 cells incubated for 48 hrs by CellTiter Glo assay. In kind it is cell-based.
Series [10] in a line: Permeability of the compound in pH 7.05 phosphate buffer incubated for 3 hrs by artificial membrane permeability assay based LCMS analysis. In kind it is ADME. The note with it: PAMPA, read-out: permeability.
Series [11] has as its system Mycobacterium tuberculosis. Put plainly: Antitubercular activity against Mycobacterium tuberculosis H37Rv infected in C57BL/6 mouse assessed as reduction in bacterial load in lungs at 30 mg/kg administered once daily starting from 5 days post infection for 4 consecutive days and measured on day 9. The format is functional.
Series [12] in a line: Intrinsic clearance in human liver microsomes at 0.5 uM measured up to 30 mins in presence of NADPH by UPLC/MS/MS analysis. As to conditions: 0.5 h. In kind it is ADME, Microsome.

Voltage-gated inwardly rectifying potassium channel KCNH2, sequence (Q12809 whole entry): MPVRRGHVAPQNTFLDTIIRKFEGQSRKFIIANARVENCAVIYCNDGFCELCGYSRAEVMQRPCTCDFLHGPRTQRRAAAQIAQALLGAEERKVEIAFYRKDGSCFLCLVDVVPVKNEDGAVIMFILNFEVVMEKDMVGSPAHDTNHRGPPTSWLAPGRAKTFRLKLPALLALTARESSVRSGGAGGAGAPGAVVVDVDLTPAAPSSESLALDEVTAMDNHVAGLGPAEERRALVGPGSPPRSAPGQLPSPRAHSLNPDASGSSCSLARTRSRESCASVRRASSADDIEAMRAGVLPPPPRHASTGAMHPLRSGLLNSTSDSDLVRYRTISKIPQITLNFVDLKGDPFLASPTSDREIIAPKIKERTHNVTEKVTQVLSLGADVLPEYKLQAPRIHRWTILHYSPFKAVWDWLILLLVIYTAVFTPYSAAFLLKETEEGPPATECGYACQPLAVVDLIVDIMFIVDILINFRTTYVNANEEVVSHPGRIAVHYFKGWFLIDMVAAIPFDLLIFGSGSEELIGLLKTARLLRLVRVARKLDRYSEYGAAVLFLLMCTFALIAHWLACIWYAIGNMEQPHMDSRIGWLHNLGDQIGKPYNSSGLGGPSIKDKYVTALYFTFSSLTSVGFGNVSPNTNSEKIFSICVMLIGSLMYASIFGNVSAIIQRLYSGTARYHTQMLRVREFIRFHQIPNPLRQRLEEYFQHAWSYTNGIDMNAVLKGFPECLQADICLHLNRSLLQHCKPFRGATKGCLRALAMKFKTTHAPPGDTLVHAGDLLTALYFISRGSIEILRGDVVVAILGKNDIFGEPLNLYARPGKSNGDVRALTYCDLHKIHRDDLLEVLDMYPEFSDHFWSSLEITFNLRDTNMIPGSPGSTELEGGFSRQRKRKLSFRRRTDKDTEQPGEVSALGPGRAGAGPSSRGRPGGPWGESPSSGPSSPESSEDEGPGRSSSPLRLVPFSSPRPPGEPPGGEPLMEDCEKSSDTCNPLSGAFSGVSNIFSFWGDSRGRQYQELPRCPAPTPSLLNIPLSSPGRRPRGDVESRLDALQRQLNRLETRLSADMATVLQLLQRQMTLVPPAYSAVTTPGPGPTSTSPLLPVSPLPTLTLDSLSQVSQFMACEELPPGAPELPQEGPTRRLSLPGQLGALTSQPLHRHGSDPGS
Albumin, sequence (P02768 whole entry): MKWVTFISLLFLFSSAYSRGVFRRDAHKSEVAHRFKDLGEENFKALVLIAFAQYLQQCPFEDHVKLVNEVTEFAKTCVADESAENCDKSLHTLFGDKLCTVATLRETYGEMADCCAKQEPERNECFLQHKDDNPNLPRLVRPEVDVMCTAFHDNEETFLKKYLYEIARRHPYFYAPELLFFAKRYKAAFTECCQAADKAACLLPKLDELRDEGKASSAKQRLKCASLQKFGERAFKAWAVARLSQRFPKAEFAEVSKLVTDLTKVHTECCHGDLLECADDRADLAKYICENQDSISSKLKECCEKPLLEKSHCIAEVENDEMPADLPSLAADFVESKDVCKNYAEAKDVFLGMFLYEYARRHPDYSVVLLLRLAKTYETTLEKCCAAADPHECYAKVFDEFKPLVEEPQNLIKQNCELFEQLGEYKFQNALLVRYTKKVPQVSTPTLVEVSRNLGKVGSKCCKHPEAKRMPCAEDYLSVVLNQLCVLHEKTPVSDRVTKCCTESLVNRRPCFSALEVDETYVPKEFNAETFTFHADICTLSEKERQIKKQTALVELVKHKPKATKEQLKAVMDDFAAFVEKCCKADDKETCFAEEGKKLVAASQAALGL

`Cc1c(CN2CCOCC2)cc(-c2ccc(C(C)C)cc2)n1-c1ccc(F)cc1` gave a minimum inhibitory concentration (MIC) in series [1] of 0.12 µM (≈ 0.0471 µg/mL). This compound yielded a solubility at 4 h in series [2] of 5 µg/mL (≈ 12.7 µM). Moreover, the selectivity ratio in series [3] was 333. In addition, the solubility kinetic in series [4] is < 1 µM. The chromatographic logD in series [5] is 8.1. Moreover, the Activity in series [6] was 98.37%.

In [1], `COC1CCN(Cc2cc(-c3ccc(C(C)C)cc3)n(-c3ccc(F)cc3)n2)CC1` gave an MIC of 0.3 µM (≈ 0.122 µg/mL). In addition, the figures for the Activity in [7] and in series [6] were 1.5 log10CFU and 96.42%, respectively. Further, the negative-log IC50 (pIC50) in series [8] is 5.20. Further, the selectivity ratio in series [3] was 105. Further, the solubility kinetic in series [4] stood at 152 µM (≈ 61.9 µg/mL). In series [9], the midpoint of cytotoxicity, the CC50 at 48 h, lay at 31.6 µM. The compound further gave a chromatographic logD in [5] of 7.31. The Papp at 3 h in series [10] was determined as 44 ×10⁻⁶ cm/s.

On to `COc1c(N2C[C@@H]3CCCN[C@@H]3C2)c(F)cc2c(=O)c(C(=O)O)cn(C3CC3)c12` [MOXIFLOXACIN], for which, in series [11], the Activity is 3.5 log10CFU.

As for `CC(C)c1ccc(-c2cc(CN3CCOCC3)nn2C2CCC2)cc1`, the MIC in series [1] came to 0.4 µM (≈ 0.136 µg/mL). Further, in series [12], the CLH was found to be 2.8 mL/min/g. For the same compound, the solubility at 4 h in series [2] was 139 µg/mL (≈ 409 µM). Moreover, the Activity in series [7] worked out at 0.3 log10CFU; in series [6] it was 96.72%. Further, in series [8], the negative-log IC50 (pIC50) was 4.49. Also, the selectivity ratio in series [3] turned out to be 125. For the same compound, the solubility kinetic in series [4] lay in the range of 305 to 306 µM. In series [9], this compound registered a CC50 at 48 h of 50 µM. The chromatographic logD in series [5] came out at 7.37. Also, in [10], the Papp at 3 h was found to be 61 ×10⁻⁶ cm/s.

With `CC(C)c1ccc(-c2cc(CN3CCOCC3)nn2C2CCCCC2)cc1`, the MIC in series [1] stood at 0.4 µM (≈ 0.147 µg/mL). Further, the CLH in series [12] was 3.4 mL/min/g. Moreover, the solubility at 4 h in series [2] was determined as 100 µg/mL (≈ 272 µM). The Activity in series [7] is given as 0.4 log10CFU; in [6] it was 97.11%. Further, the pIC50 in series [8] was < 4.30. In addition, the selectivity ratio in series [3] amounted to 158. For the same compound, the solubility kinetic in [4] is 78.5 µM (≈ 28.9 µg/mL). In [9], this compound gave a CC50 at 48 h of 63.1 µM. For the same compound, the chromatographic logD in series [5] was 8.29. The Papp at 3 h in series [10] was found to be 35 ×10⁻⁶ cm/s.

As for `COC1CCN(Cc2cc(-c3ccc(C(F)(F)F)cc3)n(-c3ccc(F)cc3)n2)CC1`, in [1], it took 0.3 µM (≈ 0.13 µg/mL) to inhibit growth (MIC). The compound also had a pIC50 in series [8] of 5.49. Besides, in series [3], the selectivity ratio was found to be 105. Further, in series [4], the solubility kinetic stood at 258 µM (≈ 112 µg/mL). The same compound returned a half-maximal cytotoxic concentration (CC50) at 48 h in series [9] of 31.6 µM. In series [5], the chromatographic logD was found to be 6.67. Also, the Papp at 3 h in series [10] is 17 ×10⁻⁶ cm/s. Further, the Activity in series [6] worked out at 96.47%.
